{"source": "patent US12070445B2", "about": "“System and assay for monitoring production/release of membrane-lytic toxins in bacteria and compounds for modulating same” (priority 2021, dated 2024)", "test_system": "WT S. aureus (RN6390b)", "assay": "Microtiter plate (96-well) vesicle lysis assay with WT S. aureus", "format": "cell-based", "conditions": "100 nM 1, 10 μM 5, 20 μM 6, 10 μM AIP", "procedure": "Compound handling and preparation. OdDHL and BHL (Hodgkinson et al., 2011), S. aureus AIP and peptide derivatives 1-5 (Tal-Gan et al., 2013, Tal-Gan et al., 2016, Vasquez and Blackwell, 2019), and compounds 7-9 (Welsh and Blackwell, 2016a, Boursier et al., 2018, Manson et al., 2020) were synthesized using previously described methods. PQS and compound 6 were purchased from Millipore Sigma and AK Scientific respectively. Compounds were stored dry at −20° C. until needed and then dissolved in DMSO. DMSO stock solutions were prepared at concentrations that varied with compound potency and apparent solubility. Final in-well compound concentrations for 96-well vesicle lysis assays, unless noted otherwise, were: 10 μM for AIP, OdDHL, and PQS; 1 mM for BHL; 100 nM for 1-4; 10 μM for 5; 20 μM for 6; 100 μM for 7 and 8; and 200 μM for 9.\nProduction of phospholipid vesicles with encapsulated calcein. Large unilamellar vesicles (LUVs) were produced by adapting a freeze-thaw and vesicle extrusion procedure (Mayer et al., 1986). Briefly, stock solutions of phospholipids (DOPC, DPPC, DPPE, or cholesterol) in chloroform were mixed to the desired lipid compositions (70 mol % DOPC/30 mol % cholesterol for S. aureus vesicles or 68 mol % DPPC, 30 mol % cholesterol, 2 mol % DPPE for P. aeruginosa vesicles), and the chloroform was removed using an N2 stream or rotary evaporation followed by drying for at least one hour under vacuum. Self-quenching solutions of calcein were prepared by combining calcein and PBS or a specially prepared calcein buffer (1 mM EDTA, 10 mM Trisbase, and 100 mM NaCl; pH 8) to a calcein concentration of […]. The resulting solutions were titrated with 10 M aqueous NaOH until all calcein was dissolved and the solution reached pH 7.4 or pH 8 for PBS and the calcein buffer, respectively. The resulting calcein solutions were added to the dried phospholipid films (PBS for S. aureus formulations and the calcein buffer for the P. aeruginosa formulations) for a final lipid concentration of 5 mg/mL. The resulting lipid solutions were vortexed vigorously and briefly sonicated in a bath sonicator to form a turbid vesicle suspension. The vesicle suspensions were then freeze-thawed five times by alternately immersing them into an iPrOH/dry ice bath and a warm water bath (˜60° C.). Vesicles prepared for continuous time-course experiments were passed at least 5 times through a 100 nm polycarbonate filter using a Mini-prep extruder. Vesicles prepared for the high-throughput screen were passed through the filter 3 times. The resulting vesicles were then separated from external, unloaded calcein using a hand-packed Sephadex-G50 size exclusion chromatography column. The concentration of phospholipid in the solution was quantified using ^31P NMR (per the above protocol), and the phospholipid concentration was adjusted to 2 mM for unsaturated lipid solutions and 1 mM for saturated lipid solutions in their respective buffers. The resulting vesicles were characterized by dynamic light scattering and found to have a hydrodynamic diameter of ˜150 nm (FIGS. 3A-3C), which agrees with previous reports describing vesicle production using a similar method (Lapinski et al., 2007).\nMicrotiter plate vesicle lysis assays. Portions of media (2 or 10 mL) were inoculated with individual bacterial colonies and allowed to shake overnight. From these overnight cultures, subcultures were prepared by diluting the cultures 1:50 (v/v) in fresh BHI for S. aureus or 1:100 (v/v) in fresh LB for P. aeruginosa. An aliquot of each subculture (178 μL) was added to 20 μL of vesicle suspension and 2 μL of compound solution (dissolved in DMSO at 100× working concentration) in a clear-bottomed, black 96-well microtiter plate (Corning 3904). For controls, DMSO (vehicle) or Triton X-100 (1% final concentration) was substituted for compound. […]", "note": "“Also recorded” adds a separate entry of the source."}
{"smiles": "CC(C)c1ccc(S(=O)(=O)c2nnn3c2nc(O)c2ccccc23)cc1", "note": "[Compound 6, savirin]", "values": [{"measurement": "effect on vesicle lysis (calcein fluorescence over 12 hr)", "value": "wholly abrogated vesicle lysis; also recorded: repress vesicle lysis"}]}
